# Results published in US5466716A, “Liposomal trimethylsphingosine” (The Biomembrane Institute, priority 1994, dated 1995).
# Entries after “also recorded” stand apart in the source; their conditions may differ.
# How the values were obtained:
# [1] = system: human gastric cancer cell line MKN-74; test: tritiated thymidine incorporation, tumor cell growth (MKN-74); format: cell-based; settings: MKN-74, FIG. 2C
# From the text: FIGS. 2A-2C show the effect of sphingosine derivatives on human tumor cell growth. In FIG. 2A the growth of human colonic cancer cell line COLO-205 was monitored. In FIG. 2B the growth of human lung cancer cell line LU-65 was monitored. In FIG. 2C the growth of human gastric cancer cell line MKN-74 was monitored. In each Figure the ordinate represents the percent inhibition of tritiated thymidine incorporation, the solid circles represent sphingosine, the open circles represent N,N-dimethylsphingosine and the triangles represent N,N,N-trimethylsphingosine.
# An in vitro assay relying on tritiated thymidine incorporation can be used to ascertain the effect of various compounds on cell proliferation. Briefly, tumor cells are seeded in flat bottom 96 well plates (Corning, N.Y.) at a concentration of 2×10^4 cells per well. The cells are cultured for 2 days in DMEM containing various concentrations of sphingoid, which is added as a PBS solution. The medium then is supplemented with tritiated thymidine at a concentration of 0.5 μCi per well. Following a six hour incubation the cells are collected using the PHD Cell Harvester (Cambridge Technology, Cambridge, Mass.) and amounts of incorporated radioactivity are determined after adding a suitable cell lysing agent and scintillation cocktail, such as ScintiVerse BD (Fisher Scientific, Fairlawn, Calif.) which performs both functions. […]
# MKN-74 cells = test: comparative effect of reagents on MKN-74 tumor cell growth/differentiation; format: cell-based, human; settings: MKN-74, FIG. 3, compared with DMS, SPN, cAMP derivatives, HMBA
# From the text: FIG. 3 depicts the comparative effect of various reagents on tumor cell differentiation. MKN-74 cells were exposed to N,N,N-trimethylsphingosine (open squares), N,N-dimethylsphingosine (open circles), 8-chloro-cyclic AMP (open triangles), dibutyryl cyclic AMP (solid triangles), sphingosine (solid circles) and hexamethylenebisacetamide (solid squares).
# An in vitro assay relying on tritiated thymidine incorporation can be used to ascertain the effect of various compounds on cell proliferation. Briefly, tumor cells are seeded in flat bottom 96 well plates (Corning, N.Y.) at a concentration of 2×10^4 cells per well. The cells are cultured for 2 days in DMEM containing various concentrations of sphingoid, which is added as a PBS solution. The medium then is supplemented with tritiated thymidine at a concentration of 0.5 μCi per well. Following a six hour incubation the cells are collected using the PHD Cell Harvester (Cambridge Technology, Cambridge, Mass.) and amounts of incorporated radioactivity are determined after adding a suitable cell lysing agent and scintillation cocktail, such as ScintiVerse BD (Fisher Scientific, Fairlawn, Calif.) which performs both functions.
# MKN-74 cells were exposed to cAMP and derivatives thereof and to HMBA, which are known to inhibit tumor cell growth by differentiation induction.
# neutrophils = test: neutrophil O2 consumption (Clark-type electrode); format: cell-based, human
# Procedure: FIG. 14 depicts the effect of various reagents on neutrophil O2 consumption. The Clark-type electrode and oxygen monitor were calibrated using air-saturated water according to the manufacturer's recommendations (Y.S.I. Inc., Yellow Springs, Ohio. A reading of 100% was considered to be equal to the concentration of oxygen in air-saturated water.
# O2 consumption was measured using a Clark-type electrode with a Y.S.I. model P300 biological oxygen monitor and a micro oxygen chamber assembly (Y.S.I. Inc., Yellow Springs, Ohio). Assays were performed at 37° C. with ≈6×10^6 neutrophils per ml in a total volume of 600 μl. The cell suspensions, in Eppendorf test tubes, were warmed at 37° C. for several minutes before being applied to the microchamber. Effectors were injected carefully using a Hamilton syringe and stirred well with a microstirrer at a speed of ≈240 rpm. The cell suspensions were pre-incubated with effectors for 5 min prior to addition of PMA to a final concentration of 1.0 μM.
# HUVEC's = test: morphologic damage to endothelial cells (HUVEC's); format: cell-based, human; settings: staurosporine 2 μM, calphostin C 5 μM
# Procedure: A characteristic of neutrophils is the ability to adhere to activiated EC's and to migrate through the EC monolayer into the vascular or extravascular matrix. The effect of TMS on neutrophil interactions with EC's and their subsequent trans-endothelial migration thereof can be monitored in vitro using human umbilical endothelial cells (HUVEC's) (Luscinskas et al., J. Imm., 146, 1617, 1991). Neutrophils are added to a HUVEC monolayer and neutrophil-HUVEC interactions are assessed microscopically following fixation, embedding and staining of monolayer sections.
# HUVEC's and culture media were purchased from Cell Systems (Kirkland, Wash.). The cells were maintained and cultured as described in Luscinskas et al., supra, with some modifications. Briefly, HUVEC's were maintained in 10 ml tissue culture flasks on a collagen type I bed obtained from rat tail (Upstate Biotechnology Inc, Lake Placid, N.Y.) with CS-complete medium, CS-growth factor and CS-AF-1 (Cell Systems). Cells became confluent within 2 to 4 days when incubated in 5% CO2 at 37° C.
# The HUVEC monolayer in 24-well tissue culture plates were washed with M199 without FCS, then incubated with 1 ml/well of IL-1β (Boehringer Mannheim Biochemical Products, Indianapolis, Ind.) dissolved in M199 with 1% heat-inactivated FCS (HIFCS) at 10 U/ml. The plates were incubated at 37° C., 5% CO2 for 4 hr then washed gently with 1 ml of M199. […]
Molecule,inhibition of tumor cell growth [1],inhibition of tumor cell growth (MKN-74 cells),neutrophil O2 consumption (neutrophils; Example 6),"inhibition of PMA-dependent enhancement of O2 consumption (neutrophils; PMA, FIG. 14)",morphologic damage to EC's (HUVEC's)
"CCCCCCCCCCCCC/C=C/[C@@H](O)[C@H](CO)[N+](C)(C)C [TMS, N,N,N-trimethylsphingosine]",superior to sphingosine; also recorded: showed an advantage over DMS,most effective inhibitor of tumor cell growth,noted effect,inhibited strongly,–
Calphostin C,–,–,–,–,striking morphologic damage to EC's
